Experimental data published in patent US20230203043A1, “NOVEL IMIDAZOPYRAZINE DERIVATIVES” (Hoffmann-La Roche Inc., priority 2020, published 2023).
Counter-ions that a name gives are not always drawn. Like-named read-outs stand apart in the source and are kept apart here.

Test system: Acinetobacter baumannii ATCC17961
Assay: Antimicrobial susceptibility testing: 90% growth inhibitory concentration (IC90) determination in Iso-Sensitest broth, OD600 growth
Type: cell-based
How it was run: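 OD600 read every 20 min for 16 h at 35±2° C; inhibition taken in log phase to derive IC90. Twofold, 10-point dilutions (e.g. 50–0.097 μM final), inoculum ~5×10^(5) CFU/ml.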

[1] = Acinetobacter baumannii, ATCC17961, 16 h, read-out: A. baumannii ATCC 17961 IC90 (uM), strain ATCC 17961, OD600 growth over 16 h
[2] = Acinetobacter baumannii, ATCC17961, 16 h, strain ATCC 17961, OD600 growth over 16 h, read-out: A. baumannii ATCC 17961 IC90

Row | IC90 [2] | SMILES | IC90 [1] | further results
1 | – | Cc1cc(Nc2nccn3c(-c4cn(CC#N)nc4C(F)(F)F)cnc23)ccc1C(=O)NCC(=O)NC1CC(N)C1 (stereo not shown) [Example 749, N-[2-[(3-aminocyclobutyl)amino]-2-oxo-ethyl]-4-[[3-[1-(cyanomethyl)-3-(trifluoromethyl)pyrazol-4-yl]imidazo[1,2-a]pyrazin-8-yl]amino]-2-methyl-benzamide formate] | 0.619 µM | –
2 | 0.395 µM | Cc1cc(Nc2nccn3c(-c4cn(CC(F)F)nc4C(F)(F)F)cnc23)cc(F)c1C(=O)N1CCN(C(=O)C2CCNCC2)CC1 [Example 707, (4-(4-((3-(1-(2,2-difluoroethyl)-3-(trifluoromethyl)-1H-pyrazol-4-yl)imidazo[1,2-a]pyrazin-8-yl)amino)-2-fluoro-6-methylbenzoyl)piperazin-1-yl)(piperidin-4-yl) methanone] | – | –
3 | 1.02 µM | CCc1cc(Nc2nccn3c(-c4cn(CC(F)F)nc4C(F)F)cnc23)ccc1C(=O)N1CCN(C(=O)[C@@H](C)N)CC1 [Example 777, (R)-2-amino-1-(4-(4-((3-(1-(2,2-difluoroethyl)-3-(difluoromethyl)-1H-pyrazol-4-yl)imidazo[1,2-a]pyrazin-8-yl)amino)-2-ethylbenzoyl)piperazin-1-yl)propan-1-one] | – | –
4 | – | O=C(CN1CCN(C(=O)c2ccc(Nc3nccn4c(-c5cn(CC(F)F)nc5C(F)(F)F)cnc34)cc2Cl)CC1)N1CCNCC1 [Example 608, 2-(4-(2-chloro-4-((3-(1-(2,2-difluoroethyl)-3-(trifluoromethyl)-1H-pyrazol-4-yl)imidazo[1,2-a]pyrazin-8-yl)amino)benzoyl)piperazin-1-yl)-1-(piperazin-1-yl) ethan-1-one formate] | 0.936 µM | –
5 | – | N#CCn1cc(-c2cnc3c(Nc4ccc(C(=O)NC5CCC(N)CC5)c(Cl)c4)nccn23)c(C(F)(F)F)n1 (stereo not shown) [Example 199, N-(4-aminocyclohexyl)-2-chloro-4-[[3-[1-(cyanomethyl)-3-(trifluoromethyl)pyrazol-4-yl]imidazo[1,2-a]pyrazin-8-yl]amino]benzamide formate] | 0.336 µM | –
6 | – | NCCCC[C@H](N)C(=O)NCCCNC(=O)c1ccc(Nc2nccn3c(-c4c[nH]nc4C(F)(F)F)cnc23)cc1Cl [Example 345, 2-chloro-N-[3-[[(2S)-2,6-diaminohexanoyl]amino]propyl]-4-[[3-[3-(trifluoromethyl)-1H-pyrazol-4-yl]imidazo[1,2-a]pyrazin-8-yl]amino]benzamide foramate] | – | IC90 (strain ATCC 17961, OD600 growth over 16 h, read-out: A. baumannii ATCC 17961 IC90): 1.22 µM
7 | – | O=C(c1ccc(Nc2nccn3c(-c4c[nH]nc4C(F)(F)F)cnc23)cc1Cl)N1CCN(C(=O)C2(O)CCNCC2)CC1 [Example 449, [2-chloro-4-[[3-[3-(trifluoromethyl)-1H-pyrazol-4-yl]imidazo[1,2-a]pyrazin-8-yl]amino]phenyl]-[4-(4-hydroxypiperidine-4-carbonyl)piperazin-1-yl]methanone formate] | 0.301 µM | –
8 | 0.195 µM | NC1CCN(C(=O)c2ccc(Nc3nccn4c(-c5cn(CC(F)F)nc5C(F)(F)F)cnc34)cc2Cl)CC1 [Example 103, (4-aminopiperidin-1-yl)-[2-chloro-4-[[3-[1-(2,2-difluoroethyl)-3-(trifluoromethyl)pyrazol-4-yl]imidazo[1,2-a]pyrazin-8-yl]amino]phenyl] methanone] | – | –
9 | 0.391 µM | Cc1cc(Nc2nccn3c(-c4cn(CC(F)F)nc4C(F)(F)F)cnc23)cc(F)c1C(=O)N[C@H](C)CNC(=O)C1CCNCC1 [Example 705, (R)-N-(2-(4-((3-(1-(2,2-difluoroethyl)-3-(trifluoromethyl)-1H-pyrazol-4-yl)imidazo[1,2-a]pyrazin-8-yl)amino)-2-fluoro-6-methylbenzamido)propyl)piperidine-4-carboxamide] | – | –
10 | 0.371 µM | CCc1cc(Nc2nccn3c(-c4c[nH]nc4C(F)(F)F)cnc23)ccc1C(=O)NC [Example 350, 2-ethyl-N-methyl-4-[[3-[3-(trifluoromethyl)-1H-pyrazol-4-yl]imidazo[1,2-a]pyrazin-8-yl]amino]benzamide] | – | –
11 | – | NCCN1CCN(C(=O)c2ccc(Nc3nccn4c(-c5c[nH]nc5C(F)(F)F)cnc34)cc2Cl)CC1 [Example 571, (4-(2-aminoethyl)piperazin-1-yl)(2-chloro-4-((3-(3-(trifluoromethyl)-1H-pyrazol-4-yl)imidazo[1,2-a]pyrazin-8-yl)amino)phenyl) methanone formate] | 0.192 µM | –
12 | 0.343 µM | Cc1cc(Nc2nccn3c(-c4cn(CC#N)nc4C(F)(F)F)cnc23)ccc1C(=O)NCC(=O)N1CC[C@@H](N)C1 [Example 686, N-[2-[(3R)-3-aminopyrrolidin-1-yl]-2-oxo-ethyl]-4-[[3-[1-(cyanomethyl)-3-(trifluoromethyl)pyrazol-4-yl]imidazo[1,2-a]pyrazin-8-yl]amino]-2-methyl-benzamide] | – | –
13 | 0.916 µM | CCc1cc(Nc2nccn3c(-c4cn(CC(F)F)nc4C(F)F)cnc23)ccc1C(=O)N1CCN(C(=O)[C@H](N)C(C)C)CC1 [Example 768, (R)-2-amino-1-(4-(4-((3-(1-(2,2-difluoroethyl)-3-(difluoromethyl)-1H-pyrazol-4-yl)imidazo[1,2-a]pyrazin-8-yl)amino)-2-ethylbenzoyl)piperazin-1-yl)-3-methylbutan-1-one] | – | –
14 | 0.177 µM | O=C(NC1CC(NC(=O)[C@@H]2C[C@@H](O)CN2)C1)c1ccc(Nc2nccn3c(-c4c[nH]nc4C(F)(F)F)cnc23)cc1Cl (stereo partly drawn) [Example 370, (2S,4R)-N-[3-[[2-chloro-4-[[3-[3-(trifluoromethyl)-1H-pyrazol-4-yl]imidazo[1,2-a]pyrazin-8-yl]amino]benzoyl]amino]cyclobutyl]-4-hydroxypyrrolidine-2-carboxamide] | – | –
15 | 0.263 µM | CCc1cc(Nc2nccn3c(-c4cn(CC#N)nc4C(F)(F)F)cnc23)ccc1C(=O)N[C@H](C)CNC(=O)[C@@H]1CCCN1 [Example 654, (S)-N-((R)-2-(4-((3-(1-(cyanomethyl)-3-(trifluoromethyl)-1H-pyrazol-4-yl)imidazo[1,2-a]pyrazin-8-yl)amino)-2-ethylbenzamido)propyl) pyrrolidine-2-carboxamide] | – | –
16 | 0.302 µM | C=CCn1cc(-c2cnc3c(Nc4ccc(C(=O)N[C@H](C)CN)c(CC)c4)nccn23)c(C(F)(F)F)n1 [Example 108, N-[(2R)-1-aminopropan-2-yl]-2-ethyl-4-[[3-[1-prop-2-enyl-3-(trifluoromethyl)pyrazol-4-yl]imidazo[1,2-a]pyrazin-8-yl]amino]benzamide] | – | –
17 | 0.409 µM | CCc1cc(Nc2nccn3c(-c4cn(CC(F)F)nc4C(F)(F)F)cnc23)ccc1C(=O)NCC(=O)N1CC[C@H](N)C1 [Example 711, N-[2-[(3S)-3-aminopyrrolidin-1-yl]-2-oxo-ethyl]-4-[[3-[1-(2,2-difluoroethyl)-3-(trifluoromethyl)pyrazol-4-yl]imidazo[1,2-a]pyrazin-8-yl]amino]-2-ethyl-benzamide] | – | –
18 | – | NCCCNC(=O)CN1CCN(C(=O)c2ccc(Nc3nccn4c(-c5cn(CC(F)F)nc5C(F)(F)F)cnc34)cc2Cl)CC1 [Example 606, N-(3-aminopropyl)-2-(4-(2-chloro-4-((3-(1-(2,2-difluoroethyl)-3-(trifluoromethyl)-1H-pyrazol-4-yl)imidazo[1,2-a]pyrazin-8-yl)amino)benzoyl)piperazin-1-yl)acetamide formate] | 0.303 µM | –
19 | 0.208 µM | CCc1cc(Nc2nccn3c(-c4cn(CC(F)F)nc4C(F)F)cnc23)ccc1C(=O)NCCOCCN [Example 122, N-[2-(2-aminoethoxy)ethyl]-4-[[3-[1-(2,2-difluoroethyl)-3-(difluoromethyl)pyrazol-4-yl]imidazo[1,2-a]pyrazin-8-yl]amino]-2-ethylbenzamide] | – | –
